Consider eleven compounds from ChEMBL document CHEMBL1201862, “PubChem BioAssay data set” (2004).

Structures are written as SMILES.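 These data come from cells grown in 96-well plates and exposed to compound for 48 hours at five concentrations. Abbreviation: GI50, concentration required for 50% inhibition of growth.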 Calls of active or inactive are those of the source. Cut-off read from the data, not from the text of the source: active = GI50 up to about 1.1 µM and inactive = higher.

Assay in all cases: inhibition of tumour cell growth, NCI panel, 48 h
The subject of test [1] is ACHN.
The subject of test [2] is BT-549.
For test [3], the system named is DMS-114.
In test [4] the test system is EKVX.
Test [5] has as its system HCC 2998.
Test [6] deals with HOP-92.
In test [7] the test system is LOX IMVI.
Test [8] concerns M14.
The test system of test [9] is MCF7.
The test system of test [10] is Malme-3M.
In test [11] the test system is OVCAR-4.
Test [12] concerns SK-MEL-28.
The test system of test [13] is SK-MEL-2.
Test [14] deals with SK-MEL-5.
Test [15] has as its system SNB-19.
Test [16] concerns SW-620.
Test [17] relates to U-251.
The test system of test [18] is UACC-62.
The test system of test [19] is UO-31.
Test [20] relates to HOP-62.

As for `COc1cccc2c1[C@H]1CO[C@H]3C4C[C@H](C(=O)O)C([C@@H](C2)N13)N4C` (some centres undefined), the GI50 in [1] is 3.85 µM (inactive); in [2], 0.116 µM (active); in [3] it was 2.22 µM (inactive); in test [4], 4.74 µM (inactive); in test [5] it was 2.58 µM (inactive); in test [6], 1.66 µM (inactive). The GI50 in test [7] is 1.36 µM (inactive); in test [8], 4.99 µM (inactive); in test [9] it was 0.491 µM (active); in test [10] it was 2.61 µM (inactive); in test [11], 5 µM (inactive); in test [12] it was 2.1 µM (inactive). For the same compound, the GI50 in test [13] was 1.08 µM (active); in test [14] it was 1.88 µM (inactive); in test [15], 2.91 µM (inactive); in test [16], 1.98 µM (inactive); in test [17], 1.41 µM (inactive); in [18] it was 1.12 µM (inactive). Besides, the GI50 in [19] is 1.54 µM (inactive).

As to `Nc1nc(CC2(O)CCCCC2)cc(-c2ccccc2)n1`, the GI50 in test [1] is 34.4 µM (inactive); in test [3], 23 µM (inactive); in [4], 35.6 µM (inactive); in test [5] it was 26.6 µM (inactive); in test [20], > 49.7 µM (inactive); in [6], > 44.9 µM (inactive). Moreover, the GI50 in test [7] was 40.4 µM (inactive); in test [8], 29.2 µM (inactive); in test [10], > 10 µM (inactive); in [11], 35.1 µM (inactive); in [12], > 63.2 µM (inactive); in [13], 35.6 µM (inactive). Besides, the GI50 in test [14] is 24.9 µM (inactive); in [15] it was 31.2 µM (inactive); in test [16] it was 25.7 µM (inactive); in [17], 39 µM (inactive); in test [18], 23.4 µM (inactive); in [19] it was > 55 µM (inactive).

In the case of `CC(=O)NC(CCCN(Cc1ccccc1)C(=O)N(C)N=O)C(=O)NCc1ccccc1` (centres undefined), the GI50 in test [1], in [3], in test [4], in test [5], in test [20] and in test [6] was > 100 µM (inactive) each time. For the same compound, the GI50 in [7], in [8], in [10], in [11], in [12] and in [13] was > 100 µM (inactive) throughout. Besides, the GI50 in test [14], in [15], in test [16], in test [17], in [18] and in test [19] was > 100 µM (inactive) each time.

As to `CCN(CC)CCCC(C)Nc1ccnc2cc(Cl)ccc12` (centres undefined) [CHLOROQUINE PHOSPHATE], the GI50 in [1] was > 85.1 µM (inactive); in test [3] it was 24.3 µM (inactive); in test [4] it was > 57 µM (inactive); in [5], 19.5 µM (inactive); in test [20] it was 34.4 µM (inactive); in test [6], 15.7 µM (inactive). In addition, the GI50 in [7] was 20.6 µM (inactive); in test [8], 15 µM (inactive); in [9] it was 19.1 µM (inactive); in test [10] it was 20.9 µM (inactive); in [11], 51.3 µM (inactive); in test [12] it was 20.6 µM (inactive). Further, the GI50 in test [13] was 10 µM (inactive); in test [14] it was 26.2 µM (inactive); in [15], > 76.4 µM (inactive); in test [16], > 57.4 µM (inactive); in test [17], 21.2 µM (inactive); in [18], 28.8 µM (inactive). The GI50 in test [19] is 14.9 µM (inactive).

Take `C[Si](C)(C)C1(Sc2ccccc2)SCCCS1`: the GI50 in [1] was 35.9 µM (inactive); in [3], 25.8 µM (inactive); in [4], 47.9 µM (inactive); in [5], 31.5 µM (inactive); in test [20] it was 29.7 µM (inactive); in [6], 32.8 µM (inactive). For the same compound, the GI50 in test [7] was 31.6 µM (inactive); in test [8], 49.8 µM (inactive); in test [10], 70.6 µM (inactive); in [11] it was 57.1 µM (inactive); in test [12], 43.3 µM (inactive); in [13], 58.9 µM (inactive). In addition, the GI50 in [14] was 72.9 µM (inactive); in [15] it was 36.9 µM (inactive); in [16], 53.1 µM (inactive); in test [17], 38.4 µM (inactive); in test [18], 35 µM (inactive); in test [19] it was 6.27 µM (inactive).

Consider `CCSCN(C)c1nc(N(C)C)nc(N(C)C)n1`, for which the GI50 is > 100 µM (inactive) in [1]; 25.9 µM (inactive) in [3]; > 100 µM (inactive) in test [4]; > 100 µM (inactive) in test [5]; 98.2 µM (inactive) in test [20]; 49.2 µM (inactive) in [6]. Besides, the GI50 in test [7] was 41.3 µM (inactive); in [8], 39.8 µM (inactive); in test [10] it was 34.3 µM (inactive); in [11], 72.3 µM (inactive); in test [12], 56.4 µM (inactive); in test [13], > 100 µM (inactive). The GI50 in test [14] was 39.9 µM (inactive); in [15], 78 µM (inactive); in test [16] it was 35.9 µM (inactive); in test [17], 54.2 µM (inactive); in [18], 40.4 µM (inactive); in [19], 41.7 µM (inactive).

On to `COc1ccc2ccc([Se]c3ccc4ccc(OC)cc4c3)cc2c1`, for which the GI50 in test [1] is 29.2 µM (inactive); in test [3], 64 µM (inactive); in test [5] it was > 100 µM (inactive); in test [20], > 100 µM (inactive); in test [6], > 100 µM (inactive); in [7], > 100 µM (inactive). Also, the GI50 was > 100 µM (inactive) in [8]; > 100 µM (inactive) in test [10]; 20.6 µM (inactive) in test [11]; > 100 µM (inactive) in [12]; > 100 µM (inactive) in [13]; > 100 µM (inactive) in test [14]. The GI50 in test [15] is 23.3 µM (inactive); in test [16] it was > 100 µM (inactive); in test [17], 29.9 µM (inactive); in [18], > 100 µM (inactive); in test [19], 23.7 µM (inactive).

Turning to `CC#C[C@@]1(O)CCCCC1O` (some centres undefined), the GI50 in [1], in test [3], in test [4], in test [5], in [20] and in test [6] was > 100 µM (inactive) in each case. The GI50 in [7], in test [8], in test [10], in test [11], in [12] and in test [13] was > 100 µM (inactive) each time. Further, the GI50 in [14], in [15], in test [16], in test [17], in test [18] and in test [19] was > 100 µM (inactive) in each case.

`O=C1NC2OC(CO)C(O)C(O)C2O1` (centres undefined): the GI50 in test [1], in test [3], in [4], in [5], in [20] and in test [6] was > 100 µM (inactive) each time. For the same compound, the GI50 in test [7], in [8], in [10], in test [11], in test [12] and in test [13] was > 100 µM (inactive) each time. The GI50 in test [14], in test [15], in test [16], in test [17], in test [18] and in test [19] was > 100 µM (inactive) throughout.

In the case of `CCCCCc1cc(OC(=O)c2c(O)cc(OC)cc2CCCCC)cc(O)c1C(=O)O`, the GI50 was 17.3 µM (inactive) in [1]; 14.7 µM (inactive) in [3]; 19 µM (inactive) in test [4]; 15.3 µM (inactive) in [5]; 16.4 µM (inactive) in [20]; 16.4 µM (inactive) in test [6]. Also, the GI50 in test [7] is 17.7 µM (inactive); in test [8], 20.4 µM (inactive); in [10], 13 µM (inactive); in [11] it was 20 µM (inactive); in test [12], 17.1 µM (inactive); in [13], 16.8 µM (inactive). In addition, the GI50 in test [14] was 14.8 µM (inactive); in test [15] it was 12.7 µM (inactive); in test [16], 18.3 µM (inactive); in test [17] it was 15.2 µM (inactive); in [18] it was 14.5 µM (inactive); in test [19] it was 13.6 µM (inactive).

Regarding `COC(=O)C(=O)C(CC(=O)Nc1cccc(C(F)(F)F)c1)C(=O)OC` (centres undefined), the GI50 in test [1], in test [3], in test [4], in [5], in [20] and in [6] was > 100 µM (inactive) each time. The GI50 in [7], in test [8], in test [10], in test [11], in [12] and in [13] was > 100 µM (inactive) each time. Besides, the GI50 in test [14], in [15], in test [16], in test [17], in [18] and in test [19] was > 100 µM (inactive) in each case.
